Assay results from patent US20240182862A1, “METHOD FOR PRODUCING MESENCHYMAL STEM CELLS” (AJINOMOTO CO., INC., priority 2021, published 2024).

Columns and labels:
[1] = tested on: iNCC (iPS cell-derived neural crest cell); assay: Differentiation induction from iNCC into iMSC, surface antigen analysis using FACS; assay type: cell-based, human
Protocol: The obtained iNCCs (iPSC-derived NCCs) were seeded at a density of 5.0×10^3 cells/well into a 6-well plate coated with vitronectin-N (Thermo Fisher Scientific) at a density of 1.5 μg/cm^2 and cultured under 37° C., 5% CO2 conditions for […] using the following differentiation medium (T3 medium) to induce iMSCs (iPSC-derived MSCs).
T3 medium: StemFit (registered trademark) For Mesenchymal Stem Cells (Ajinomoto Co., Inc.), 90 nM Dexamethasone (Sigma-Aldrich) […]
iMSC was induced according to Example 1, except that 100 nM Dexamethasone, 100 nM betamethasone, 100 nM predonisolone, 666 nM predonisolone were used.
Regarding the induced iMSC, surface antigen analysis of 4 types of MSC positive markers (CD90, CD44, CD73, CD105), 1 type of NCC positive marker (MSC micro-positive marker) (CD271), and two types of MSC negative markers (CD45 and CD34) was performed using FACS.

[2] = Titer of corticosteroid as glucocorticoid; conditions: titer as glucocorticoid taken for the converted concentrations of the Examples
[3] = when hydrocortisone is set to 1; cited from earlier work
TSG-6 (TNFAIP6) = assay: Gene expression of TSG-6 (TNFAIP6) after IFNγ stimulation, Real-Time PCR; assay type: cell-based, human; conditions: iMSC induced by adding 50 nM to 10 μM Dexamethasone, 18 days; 50 ng/mL IFNγ for 48 hr; FIG. 3
Protocol: iNCCs were seeded at a density of 5.0×10^3 cells/well into a 6-well plate coated with vitronectin-N at a density of 1.5 μg/cm^2, and cultured under 37° C., 5% CO2 conditions for 16 days using T3 medium to induce iMSCs.
After 16 days from the start of induction, 50 ng/mL IFNγ (R&D Systems) was added to T3 medium to stimulate for 48 hr. After stimulation, RNA was purified according to the protocol of PureLink (trademark) RNA Mini Kit (Thermo Fisher Scientific) and, after reverse transcription, gene expression of TSG-6 (TNFAIP6), a therapeutic marker for inflammatory diseases, was analyzed using Real-Time PCR. As comparison targets, iNCC-derived iMSC induced to differentiate in αMEM medium containing 10% FBS, and two lots of living bone marrow-derived MSC (BMMSC) (Lonza or RoosterBio) cultured in T3 medium for 12 to 16 days were used (Table 2).
iNCCs were seeded at a density of 3.0×10^4 cells/well into a 6-well plate coated with vitronectin-N at a density of 1.5 μg/cm^2, and cultured under 37° C., 5% CO2 conditions using StemFit (registered trademark) For Mesenchymal Stem Cells supplemented with 50 nM, 100 nM, 1 μM, 10 μM, 50 μM Dexamethasone to induce iMSCs. […] After stimulation, RNA was purified and, after reverse transcription, gene expression of TNFAIP6 was analyzed using Real-Time PCR.

iNCC = assay: Cell proliferation curve during differentiation induction; assay type: cell-based, human; conditions: group added with 50 μM; FIG. 2
[4] = tested on: LX-2 Human Hepatic Stellate Cell Line; assay: Antifibrotic action of secretome: RT-PCR of fibrosis marker genes COL1A1 and ACTA2 in LX-2 cells; assay type: cell-based; conditions: effect of TGF-β1 stimulation itself (10 ng/mL)
Protocol: LX-2 Human Hepatic Stellate Cell Line (EDM Millipore, hereinafter LX-2 cells) was cultured in a DMEM high Glucose (Life Technologies) medium supplemented with 10% FBS (Gibco), 1% penicillin-streptomycin (Nacalai), and 2 mM Glutamine (Gibco). On the fourth passage, 4×10^4 cells were seeded into each well of a 12-well plate. After 2 days of culture, the medium was replaced with a medium in which concentrated secretome obtained from iMSC was added at a concentration of 1× to a medium supplemented with 10 ng/mL TGF-β1 (Peprotech), and the culture was continued. On the second day after replacing the medium, cells were detached with Accutase (Thermo Fisher), and after collection, RNA was extracted and purified using Maxwell (registered trademark) 16 LEV simplyRNA Purification Kits (Promega), and reverse transcription was performed using PrimeScript™ RT Master Mix (Takara). RT-PCR was performed on the synthesized cDNA using the primers of TaqMan (registered trademark) Gene Expression Assays shown in Table 5.

[5] = StemFit For MSC + 100 nM corticosteroid
[6] = StemFit For MSC + 666 nM corticosteroid

Molecule	CD34 (MSC negative marker) FACS [1, 5]	CD44 (MSC positive marker) FACS [1, 5]	CD45 (MSC negative marker) FACS [1, 5]	CD73 (MSC positive marker) FACS [1, 5]	CD90 (MSC positive marker) FACS [1, 5]	CD105 (MSC positive marker) FACS [1, 5]	CD271 (NCC positive, MSC micro-positive marker) FACS [1, 5]	titer of corticosteroid as glucocorticoid [3]	also measured
C[C@]12C=CC(=O)C=C1CC[C@@H]1[C@@H]2[C@@H](O)C[C@@]2(C)[C@H]1CC[C@]2(O)C(=O)CO [Prednisolone]	9.22%	99.60%	0.56%	96.38%	98.99%	93.32%	56.94%	4	effect in promoting differentiation ([1]; 666 nM, titer as glycocorticoid aligned): effective in promoting differentiation; CD34 (MSC negative marker) FACS [1, 6]: 9.86%; CD44 (MSC positive marker) FACS [1, 6]: 99.70%; CD45 (MSC negative marker) FACS [1, 6]: 0.88%; CD73 (MSC positive marker) FACS [1, 6]: 97.38%; CD90 (MSC positive marker) FACS [1, 6]: 99.18%; CD105 (MSC positive marker) FACS [1, 6]: 95.28%; CD271 (NCC positive, MSC micro-positive marker) FACS [1, 6]: 41.02%; effect in promoting differentiation ([1]; added at 100 nM): limited effect; titer used to convert concentrations [2]: 4
C[C@@H]1C[C@H]2[C@@H]3CCC4=CC(=O)C=C[C@]4(C)[C@@]3(F)[C@@H](O)C[C@]2(C)[C@@]1(O)C(=O)CO [Dexamethasone, Pregna-1,4-diene-3,20-dione,9-fluoro-11,17,21-trihydroxy-16-methyl-, (11β,16α)-]	10.52%	99.26%	0.64%	97.82%	99.22%	96.36%	23.42%	–	gene expression of TSG-6 by IFNγ stimulation (TSG-6 (TNFAIP6)): significantly increased; proliferation of cells during differentiation induction (iNCC): stopped after day 13; titer used to convert concentrations [2]: 26.66
C[C@H]1C[C@H]2[C@@H]3CCC4=CC(=O)C=C[C@]4(C)[C@@]3(F)[C@@H](O)C[C@]2(C)[C@@]1(O)C(=O)CO [Betamethasone]	8.12%	99.60%	0.88%	97.86%	98.96%	95.34%	34.14%	–	–
C[C@]12C=CC(=O)C=C1CC[C@H]1[C@@H]3C[C@@H](O)[C@](O)(C(=O)CO)[C@@]3(C)C[C@H](O)[C@@]12F [triamcinolone]	–	–	–	–	–	–	–	5	–
TGF-β1: TGF-β1 (Peprotech), 10 ng/mL stimulus of LX-2 cells	–	–	–	–	–	–	–	–	ACTA2 expression [4]: markedly increased; COL1A1 expression [4]: markedly increased
C[C@]12CCC(=O)C=C1CC[C@@H]1[C@@H]2C(=O)C[C@@]2(C)[C@H]1CC[C@]2(O)C(=O)CO [cortisone]	–	–	–	–	–	–	–	0.8	–
C[C@@H]1C[C@H]2[C@@H]3C[C@H](F)C4=CC(=O)C=C[C@]4(C)[C@H]3[C@@H](O)C[C@]2(C)[C@@]1(O)C(=O)CO [paramethasone]	–	–	–	–	–	–	–	10	–
